From PubChem BioAssay (NCI)
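GI50 = concentration required for 50% inhibition of growth. TGI: concentration producing complete growth inhibition.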

What was measured:
Assay in all cases: DTP human tumour cell line panel, 384-well format
786-0 renal = tested on: 786-0 renal
A498 renal = tested on: A498 renal
A549 NSCLC = tested on: A549 NSCLC
ACHN renal = tested on: ACHN renal
BT-549 breast = tested on: BT-549 breast
CAKI-1 renal = tested on: CAKI-1 renal
CCRF-CEM leukemia = tested on: CCRF-CEM leukemia
DU-145 prostate = tested on: DU-145 prostate
EKVX NSCLC = tested on: EKVX NSCLC
HCC-2998 colon = tested on: HCC-2998 colon
HCT-116 colon = tested on: HCT-116 colon
HCT-15 colon = tested on: HCT-15 colon
HL-60(TB) leukemia = tested on: HL-60(TB) leukemia
HOP-62 NSCLC = tested on: HOP-62 NSCLC
HOP-92 NSCLC = tested on: HOP-92 NSCLC
HS 578T breast = tested on: HS 578T breast
HT29 colon = tested on: HT29 colon
IGROV1 ovarian = tested on: IGROV1 ovarian
K-562 leukemia = tested on: K-562 leukemia
KM12 colon = tested on: KM12 colon
LOX IMVI melanoma = tested on: LOX IMVI melanoma
M14 melanoma = tested on: M14 melanoma
MALME-3M melanoma = tested on: MALME-3M melanoma
MCF7 breast = tested on: MCF7 breast
MDA-MB-435 melanoma = tested on: MDA-MB-435 melanoma
MDA-MB-468 breast = tested on: MDA-MB-468 breast
MOLT-4 leukemia = tested on: MOLT-4 leukemia
NCI-H226 lung = tested on: NCI-H226 lung
NCI-H23 lung = tested on: NCI-H23 lung
NCI-H322M lung = tested on: NCI-H322M lung
NCI-H460 NSCLC = tested on: NCI-H460 NSCLC
NCI-H522 lung = tested on: NCI-H522 lung
NCI/ADR-RES ovarian = tested on: NCI/ADR-RES ovarian
OVCAR-3 ovarian = tested on: OVCAR-3 ovarian
OVCAR-4 ovarian = tested on: OVCAR-4 ovarian
OVCAR-5 ovarian = tested on: OVCAR-5 ovarian
OVCAR-8 ovarian = tested on: OVCAR-8 ovarian
PC-3 prostate = tested on: PC-3 prostate
RPMI-8226 leukemia = tested on: RPMI-8226 leukemia
SF-268 CNS = tested on: SF-268 CNS
SF-295 CNS = tested on: SF-295 CNS
SF-539 CNS = tested on: SF-539 CNS
SK-MEL-28 melanoma = tested on: SK-MEL-28 melanoma
SK-MEL-5 melanoma = tested on: SK-MEL-5 melanoma
SK-OV-3 ovarian = tested on: SK-OV-3 ovarian
SN12C renal = tested on: SN12C renal
SNB-19 CNS = tested on: SNB-19 CNS
SNB-75 CNS = tested on: SNB-75 CNS
SW-620 colon = tested on: SW-620 colon
T-47D breast = tested on: T-47D breast
TK-10 renal = tested on: TK-10 renal
U251 glioblastoma = tested on: U251 glioblastoma
UACC-257 melanoma = tested on: UACC-257 melanoma
UACC-62 melanoma = tested on: UACC-62 melanoma
UO-31 renal = tested on: UO-31 renal

SMILES: CC[C@@H](C)Nc1cc(C(=O)NC2CC3CCC(C2)N3c2ccc(C(=O)C3CC3)cn2)c(C)cc1C(N)=O (some centres undefined)
- GI50 ([…]-0 renal): 33.2 nM
- TGI (786-0 renal): 11700 nM
- GI50 (A498 renal): 23.3 nM
- TGI (A498 renal): 17600 nM
- GI50 (A549 NSCLC): < 10 nM
- TGI (A549 NSCLC): 11700 nM
- GI50 (ACHN renal): 45 nM
- TGI (ACHN renal): 28400 nM
- GI50 (BT-549 breast): 12.5 nM
- GI50 (CAKI-1 renal): 46.2 nM
- TGI (CAKI-1 renal): 19200 nM
- GI50 (CCRF-CEM leukemia): < 10 nM
- TGI (CCRF-CEM leukemia): 37 nM
- GI50 (DU-145 prostate): 23.8 nM
- TGI (DU-145 prostate): 732 nM
- GI50 (EKVX NSCLC): 36.7 nM
- TGI (EKVX NSCLC): 17700 nM
- GI50 (HCC-2998 colon): < 10 nM
- TGI (HCC-2998 colon): 39.6 nM
- GI50 (HCT-116 colon): 36.8 nM
- TGI (HCT-116 colon): 14900 nM
- GI50 (HCT-15 colon): 36.1 nM
- TGI (HCT-15 colon): 15000 nM
- GI50 (HL-60(TB) leukemia): 12.6 nM
- TGI (HL-60(TB) leukemia): 26.3 nM
- GI50 (HOP-62 NSCLC): 29.5 nM
- TGI (HOP-62 NSCLC): 13700 nM
- GI50 (HOP-92 NSCLC): 28.5 nM
- TGI (HOP-92 NSCLC): 70.8 nM
- GI50 (HS 578T breast): 40.3 nM
- TGI (HS 578T breast): 236 nM
- GI50 (HT29 colon): < 10 nM
- TGI (HT29 colon): 11500 nM
- GI50 (IGROV1 ovarian): 13 nM
- TGI (IGROV1 ovarian): 85.9 nM
- GI50 (K-562 leukemia): 19.9 nM
- TGI (K-562 leukemia): 205 nM
- GI50 (KM12 colon): 19.9 nM
- TGI (KM12 colon): 1620 nM
- GI50 (LOX IMVI melanoma): 16.6 nM
- TGI (LOX IMVI melanoma): 31.7 nM
- GI50 (M14 melanoma): 31 nM
- TGI (M14 melanoma): 12800 nM
- GI50 (MALME-3M melanoma): 19.9 nM
- TGI (MALME-3M melanoma): 78.5 nM
- GI50 (MCF7 breast): < 10 nM
- TGI (MCF7 breast): 237 nM
- GI50 (MDA-MB-435 melanoma): 62.6 nM
- TGI (MDA-MB-435 melanoma): 23300 nM
- GI50 (MDA-MB-468 breast): 17.9 nM
- TGI (MDA-MB-468 breast): 42.8 nM
- GI50 (MOLT-4 leukemia): < 10 nM
- TGI (MOLT-4 leukemia): 17.6 nM
- GI50 (NCI-H226 lung): 30.3 nM
- TGI (NCI-H226 lung): 171 nM
- GI50 (NCI-H23 lung): 17.6 nM
- TGI (NCI-H23 lung): 53.6 nM
- GI50 (NCI-H322M lung): 27.5 nM
- TGI (NCI-H322M lung): 19100 nM
- GI50 (NCI-H460 NSCLC): < 10 nM
- TGI (NCI-H460 NSCLC): 24.3 nM
- GI50 (NCI-H522 lung): 19.4 nM
- TGI (NCI-H522 lung): 46.3 nM
- GI50 (NCI/ADR-RES ovarian): 277 nM
- TGI (NCI/ADR-RES ovarian): 782 nM
- GI50 (OVCAR-3 ovarian): 24.5 nM
- TGI (OVCAR-3 ovarian): 84.1 nM
- GI50 (OVCAR-4 ovarian): 6750 nM
- TGI (OVCAR-4 ovarian): 23500 nM
- GI50 (OVCAR-5 ovarian): 39.9 nM
- TGI (OVCAR-5 ovarian): 30800 nM
- GI50 (OVCAR-8 ovarian): 20.6 nM
- TGI (OVCAR-8 ovarian): 44.6 nM
- GI50 (PC-3 prostate): 28.3 nM
- TGI (PC-3 prostate): 85.9 nM
- GI50 (RPMI-8226 leukemia): 25.1 nM
- TGI (RPMI-8226 leukemia): 85.6 nM
- GI50 (SF-268 CNS): 11 nM
- TGI (SF-268 CNS): 36.3 nM
- GI50 (SF-295 CNS): 24.2 nM
- TGI (SF-295 CNS): 65.3 nM
- GI50 (SF-539 CNS): 20 nM
- TGI (SF-539 CNS): 51.1 nM
- GI50 (SK-MEL-28 melanoma): 43.7 nM
- TGI (SK-MEL-28 melanoma): 21600 nM
- GI50 (SK-MEL-5 melanoma): 19.7 nM
- TGI (SK-MEL-5 melanoma): 10600 nM
- GI50 (SK-OV-3 ovarian): 24.9 nM
- TGI (SK-OV-3 ovarian): 15000 nM
- GI50 (SN12C renal): 24.8 nM
- TGI (SN12C renal): 76.6 nM
- GI50 (SNB-19 CNS): 41.6 nM
- TGI (SNB-19 CNS): 17300 nM
- GI50 (SNB-75 CNS): 82.4 nM
- TGI (SNB-75 CNS): 464 nM
- GI50 (SW-620 colon): 26.2 nM
- TGI (SW-620 colon): 78.8 nM
- GI50 (T-47D breast): 12.2 nM
- TGI (T-47D breast): 52.8 nM
- GI50 (TK-10 renal): 42 nM
- TGI (TK-10 renal): 32800 nM
- GI50 (U251 glioblastoma): 23.2 nM
- TGI (U251 glioblastoma): 65.6 nM
- GI50 (UACC-257 melanoma): 62.1 nM
- TGI (UACC-257 melanoma): 25100 nM
- GI50 (UACC-62 melanoma): 26.4 nM
- TGI (UACC-62 melanoma): 81.1 nM
- GI50 (UO-31 renal): 42.8 nM
- TGI (UO-31 renal): 67700 nM
